Data as given in publication PMC4639830, “Inhibition of DYRK1A and GSK3B induces human β-cell proliferation” (Nature Communications, 2015).

Experiments:
[1] = tested on: reversibly immortalized mouse beta (R7T1) cells; test: R7T1 proliferation assay (CellTiter Glo); assay type: cell-based; settings: growth-arrested R7T1 cells
Protocol: Reversibly immortalized mouse β-cells (R7T1)[49] express SV40 T antigen under a tetracycline inducible promoter. R7T1 cells were expanded in the presence of doxycycline. For experiments on proliferation, R7T1 cells were growth arrested by removal of doxycycline for 2 days and plated into 384-well plates at a density of 3,000 cells per well in growth medium. β-Cell proliferation was assessed using CellTiter Glo (Promega) after 4 days. Fold increase in cell number was calculated by normalizing compound-treated wells to the median of DMSO-treated wells.

human islets = test: Human islets treated 7 days: DNA, ATP, IEQ, insulin content, GSIS; assay type: cell-based; settings: for DNA and ATP content and islet equivalent units (IEQ) compared with vehicle / insulin secretory capacity (GSIS): 6.7 μM GNF7156 or 2 μM GNF4877
Protocol: Human islets were evaluated for glucose stimulated insulin secretion using standard methods. Secreted insulin was monitored using an ELISA (Meso-scale Devices) and normalized to total DNA (PicoGreen, Invitrogen).
Rat or human β-cell proliferation assays were performed using dissociated primary rat or human islets. Islets were treated with the indicated compounds in the presence of EdU for 4 days before fixing and staining. EdU incorporation was measured by click reaction with AlexaFluor-647-azide (Invitrogen). For intact islet assays, primary human islets were treated for 7 or 8 days (as indicated in the legend). Rat dissociated islets were cultured in RPMI medium containing 10% FBS and human dissociated islets were cultured in PIM-S media (Prodo laboratories) with 10% human […].

[2] = tested on: Wnt-driven luciferase reporter in TM3 cells; test: Wnt-driven luciferase reporter gene (Super Top Flash); assay type: cell-based
Source text: Supplementary Figure 8. Selective Dyrk1a inhibition is sufficient to induce β-cell proliferation.
Top Flash) in TM3 cells (mean ± SD; n=3). (b) GNF6324-treated primary rat islets were
immunostained for nuclear localization of β-catenin in EdU and insulin co-positive cells. Co-
vehicle control cells. Scale bar = 20 µm. (c-e) Selective Dyrk1a inhibitors stimulate EdU
Beta-catenin/Insulin/DAPI
% E d U (+ ) b e ta c e lls
% E d U (+ ) in s u lin (+ ) c e lls […]
% E d U ( + ) in s u lin (+ ) c e lls C o n tro l
(1 picture or pasted object on this page, not shown here)

[3] = tested on: NFATc1-GFP localization in Ins1 cells; test: NFATc1-GFP nuclear localization; assay type: cell-based; settings: low glucose
Source text: Figure 6 AP compounds induce β-cell proliferation through activation of the calcineurin–NFAT pathway. (a) AP compounds stimulate NFATc1-GFP nuclear localization. […] Scale bar, 50 μm. […] Scale bar, 50 μm.

AURORA-B = target: T1, AURORA-B (Homo sapiens, UniProt Q96GD4); test: Kinase profiling; assay type: biochemical; settings: Conc 1000 nM; read-out: Percent inhibition, AURORA-B
T1 construct: purchased Ambit KINOMEscan
Source text: (§1) ; Fig. 5a; Supplementary Table 1). We focused on Dyrk1a because other kinases inhibited by aminopyrazine compounds were not highly expressed in β-cells and because Dyrk1a was known to inhibit the NFAT pathway that was previously implicated in β-cell proliferation. We used molecular modelling to dock the aminopyrazine compounds into the published structure of Dyrk1a (protein databank accession code 2vx3.pdb; Fig. 5b).

CHEK1 = target: T2, CHEK1 (Homo sapiens, UniProt O14757); test: Kinase profiling; assay type: biochemical; settings: Conc 1000 nM; read-out: Percent inhibition, CHEK1
T2 construct: purchased Ambit KINOMEscan
Source text: as §1

CK1a = target: T3, CK1a (Homo sapiens, UniProt P48729); test: Kinase profiling; assay type: biochemical; settings: Conc 1000 nM; read-out: Percent inhibition, CK1a
T3 construct: purchased Ambit KINOMEscan
Source text: as §1

CSK = target: T4, CSK (Homo sapiens, UniProt P41240); test: Kinase profiling; assay type: biochemical; settings: Conc 1000 nM; read-out: Percent inhibition, CSK
T4 construct: purchased Ambit KINOMEscan
Source text: as §1

EphA3 = target: T5, EphA3 (Homo sapiens, UniProt P29320); test: Kinase profiling; assay type: biochemical; settings: Conc 1000 nM; read-out: Percent inhibition, EphA3
T5 construct: purchased Ambit KINOMEscan
Source text: as §1

EphB3 = target: T6, EphB3 (Homo sapiens, UniProt P54753); test: Kinase profiling; assay type: biochemical; settings: Conc 1000 nM; read-out: Percent inhibition, EphB3
T6 construct: purchased Ambit KINOMEscan
Source text: as §1

IRAK4 = target: T7, IRAK4 (Homo sapiens, UniProt Q9NWZ3); test: Kinase profiling; assay type: biochemical; settings: Conc 1000 nM; read-out: Percent inhibition, IRAK4
T7 construct: purchased Ambit KINOMEscan
Source text: as §1

JAK2 = target: T8, JAK2 (Homo sapiens, UniProt O60674); test: Kinase profiling; assay type: biochemical; settings: read-out: Percent inhibition, JAK2; for inhibition at 1 µM: Conc 1000 nM
T8 construct: purchased Ambit KINOMEscan
Source text: as §1

LynA = target: T9, LynA (Homo sapiens, UniProt P07948); test: Kinase profiling; assay type: biochemical; settings: Conc 1000 nM; read-out: Percent inhibition, LynA
T9 construct: purchased Ambit (KINOMEscan)
Source text: as §1

MAPK1 (ERK2) = target: T10, MAPK1 (ERK2) (Homo sapiens, UniProt P28482); test: Kinase profiling; assay type: biochemical; settings: Conc 1000 nM; read-out: Percent inhibition, MAPK1 (ERK2)
T10 construct: purchased Ambit (KINOMEscan)
Source text: as §1

NEK2 = target: T11, NEK2 (Homo sapiens, UniProt P51955); test: Kinase profiling; assay type: biochemical; settings: Conc 1000 nM; read-out: Percent inhibition, NEK2
T11 construct: purchased Ambit (KINOMEscan)
Source text: as §1

PDGFRa = target: T12, PDGFRa (Homo sapiens, UniProt P16234); test: Kinase profiling; assay type: biochemical; settings: read-out: Percent inhibition, PDGFRa; for inhibition at 1 µM: Conc 1000 nM
T12 construct: purchased Ambit (KINOMEscan)
Source text: as §1

RET = target: T13, RET (Homo sapiens, UniProt P07949); test: Kinase profiling; assay type: biochemical; settings: read-out: Percent inhibition, RET; for inhibition at 1 µM: Conc 1000 nM
T13 construct: purchased Ambit (KINOMEscan)
Source text: as §1

SRC = target: T14, SRC (Homo sapiens, UniProt P12931); test: Kinase profiling; assay type: biochemical; settings: Conc 1000 nM; read-out: Percent inhibition, SRC
T14 construct: purchased Ambit (KINOMEscan)
Source text: as §1

TTK = target: T15, TTK (Homo sapiens, UniProt P33981); test: Kinase profiling; assay type: biochemical; settings: Conc 1000 nM; read-out: Percent inhibition, TTK
T15 construct: purchased Ambit (KINOMEscan)
Source text: as §1

bRAF = target: T16, bRAF (Homo sapiens, UniProt P15056); test: Kinase profiling; assay type: biochemical; settings: Conc 1000 nM; read-out: Percent inhibition, bRAF
T16 construct: purchased Ambit KINOMEscan
Source text: as §1

p38delta (MAPK13) = target: T17, p38delta (MAPK13) (Homo sapiens, UniProt O15264); test: Kinase profiling; assay type: biochemical; settings: Conc 1000 nM; read-out: Percent inhibition, p38delta (MAPK13)
T17 construct: purchased Ambit (KINOMEscan)
Source text: as §1

FAK2 (PTK2) = test: Kinase profiling; assay type: biochemical, human
Source text: as §1

T13 sequence (P07949 29-1114): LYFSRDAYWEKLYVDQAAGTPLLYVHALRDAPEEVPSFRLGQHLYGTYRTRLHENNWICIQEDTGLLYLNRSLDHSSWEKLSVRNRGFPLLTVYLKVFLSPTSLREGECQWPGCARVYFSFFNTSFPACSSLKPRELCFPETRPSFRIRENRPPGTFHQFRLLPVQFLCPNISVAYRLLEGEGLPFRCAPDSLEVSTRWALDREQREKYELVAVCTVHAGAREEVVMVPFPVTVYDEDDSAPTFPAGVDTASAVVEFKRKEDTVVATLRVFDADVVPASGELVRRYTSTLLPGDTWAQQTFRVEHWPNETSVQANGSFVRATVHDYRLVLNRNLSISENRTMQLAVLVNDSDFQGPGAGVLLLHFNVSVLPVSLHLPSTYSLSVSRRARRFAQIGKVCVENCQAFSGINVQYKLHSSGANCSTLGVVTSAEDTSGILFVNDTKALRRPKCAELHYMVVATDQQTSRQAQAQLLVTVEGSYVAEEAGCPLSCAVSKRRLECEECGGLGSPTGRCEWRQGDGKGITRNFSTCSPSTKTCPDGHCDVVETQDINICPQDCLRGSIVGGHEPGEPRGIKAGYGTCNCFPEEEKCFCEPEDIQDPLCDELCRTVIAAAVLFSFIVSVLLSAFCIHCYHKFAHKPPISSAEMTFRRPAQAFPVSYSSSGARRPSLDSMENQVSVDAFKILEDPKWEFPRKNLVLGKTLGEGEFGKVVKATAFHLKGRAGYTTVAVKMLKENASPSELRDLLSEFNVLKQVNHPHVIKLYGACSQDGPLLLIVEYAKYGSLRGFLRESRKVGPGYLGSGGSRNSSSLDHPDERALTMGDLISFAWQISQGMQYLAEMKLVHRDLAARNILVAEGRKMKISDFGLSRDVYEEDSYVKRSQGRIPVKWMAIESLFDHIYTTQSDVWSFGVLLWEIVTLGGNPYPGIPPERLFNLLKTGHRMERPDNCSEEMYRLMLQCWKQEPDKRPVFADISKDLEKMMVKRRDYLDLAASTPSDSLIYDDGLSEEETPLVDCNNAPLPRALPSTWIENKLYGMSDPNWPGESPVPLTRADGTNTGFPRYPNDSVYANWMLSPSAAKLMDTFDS
T12 sequence (P16234 24-1089): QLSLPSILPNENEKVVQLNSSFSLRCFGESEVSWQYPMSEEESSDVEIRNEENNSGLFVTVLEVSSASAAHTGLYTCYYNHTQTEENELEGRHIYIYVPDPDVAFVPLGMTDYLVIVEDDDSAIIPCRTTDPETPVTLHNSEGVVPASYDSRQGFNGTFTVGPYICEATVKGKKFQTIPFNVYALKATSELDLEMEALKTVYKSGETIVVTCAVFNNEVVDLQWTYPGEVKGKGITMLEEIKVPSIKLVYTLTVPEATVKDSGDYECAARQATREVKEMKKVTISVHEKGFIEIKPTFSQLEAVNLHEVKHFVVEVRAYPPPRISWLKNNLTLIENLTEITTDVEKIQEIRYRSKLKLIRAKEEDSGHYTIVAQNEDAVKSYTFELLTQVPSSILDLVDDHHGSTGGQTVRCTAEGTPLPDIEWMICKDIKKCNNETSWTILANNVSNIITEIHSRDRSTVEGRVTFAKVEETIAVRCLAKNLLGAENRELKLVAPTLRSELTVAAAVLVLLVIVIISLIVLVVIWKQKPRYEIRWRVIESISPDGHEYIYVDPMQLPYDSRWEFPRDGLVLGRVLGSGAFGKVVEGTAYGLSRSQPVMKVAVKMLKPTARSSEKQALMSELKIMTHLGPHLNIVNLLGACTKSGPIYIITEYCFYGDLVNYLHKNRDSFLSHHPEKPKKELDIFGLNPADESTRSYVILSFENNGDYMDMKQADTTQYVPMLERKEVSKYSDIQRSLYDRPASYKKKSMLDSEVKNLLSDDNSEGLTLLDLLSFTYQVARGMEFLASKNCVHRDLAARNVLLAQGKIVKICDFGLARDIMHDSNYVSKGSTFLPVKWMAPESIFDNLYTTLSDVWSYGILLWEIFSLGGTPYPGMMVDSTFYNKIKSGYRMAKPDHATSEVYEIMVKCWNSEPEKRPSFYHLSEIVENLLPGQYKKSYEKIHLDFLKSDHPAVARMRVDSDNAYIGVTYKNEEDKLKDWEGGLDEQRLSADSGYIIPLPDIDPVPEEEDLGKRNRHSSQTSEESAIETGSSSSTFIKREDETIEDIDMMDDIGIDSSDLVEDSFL
T8 sequence (O60674 whole entry): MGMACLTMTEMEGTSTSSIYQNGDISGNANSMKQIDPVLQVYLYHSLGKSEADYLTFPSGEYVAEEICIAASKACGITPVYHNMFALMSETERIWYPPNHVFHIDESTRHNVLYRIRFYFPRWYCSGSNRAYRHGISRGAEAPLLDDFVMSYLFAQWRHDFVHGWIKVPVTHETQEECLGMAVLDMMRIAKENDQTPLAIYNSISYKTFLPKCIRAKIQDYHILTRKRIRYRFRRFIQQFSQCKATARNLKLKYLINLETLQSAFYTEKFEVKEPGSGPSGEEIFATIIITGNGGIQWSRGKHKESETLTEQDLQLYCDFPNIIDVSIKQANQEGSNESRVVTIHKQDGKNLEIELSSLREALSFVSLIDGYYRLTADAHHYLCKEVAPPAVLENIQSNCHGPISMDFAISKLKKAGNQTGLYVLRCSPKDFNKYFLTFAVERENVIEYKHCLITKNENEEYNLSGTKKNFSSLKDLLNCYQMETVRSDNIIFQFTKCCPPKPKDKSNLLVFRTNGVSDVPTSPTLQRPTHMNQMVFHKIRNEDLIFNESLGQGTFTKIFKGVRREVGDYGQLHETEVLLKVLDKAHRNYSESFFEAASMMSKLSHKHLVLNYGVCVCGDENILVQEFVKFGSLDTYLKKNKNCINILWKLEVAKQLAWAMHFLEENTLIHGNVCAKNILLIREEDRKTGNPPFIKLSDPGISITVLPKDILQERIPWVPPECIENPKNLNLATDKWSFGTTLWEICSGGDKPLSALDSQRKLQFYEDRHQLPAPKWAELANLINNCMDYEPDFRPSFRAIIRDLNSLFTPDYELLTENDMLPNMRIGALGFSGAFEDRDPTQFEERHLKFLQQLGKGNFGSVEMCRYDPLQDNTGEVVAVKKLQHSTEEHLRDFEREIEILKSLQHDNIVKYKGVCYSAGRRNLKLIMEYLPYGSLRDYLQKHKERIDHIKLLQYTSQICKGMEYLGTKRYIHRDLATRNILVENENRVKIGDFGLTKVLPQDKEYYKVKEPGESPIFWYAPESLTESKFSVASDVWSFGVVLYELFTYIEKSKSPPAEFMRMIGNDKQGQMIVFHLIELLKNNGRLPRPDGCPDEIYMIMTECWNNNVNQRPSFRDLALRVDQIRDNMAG
T15 sequence (P33981 whole entry): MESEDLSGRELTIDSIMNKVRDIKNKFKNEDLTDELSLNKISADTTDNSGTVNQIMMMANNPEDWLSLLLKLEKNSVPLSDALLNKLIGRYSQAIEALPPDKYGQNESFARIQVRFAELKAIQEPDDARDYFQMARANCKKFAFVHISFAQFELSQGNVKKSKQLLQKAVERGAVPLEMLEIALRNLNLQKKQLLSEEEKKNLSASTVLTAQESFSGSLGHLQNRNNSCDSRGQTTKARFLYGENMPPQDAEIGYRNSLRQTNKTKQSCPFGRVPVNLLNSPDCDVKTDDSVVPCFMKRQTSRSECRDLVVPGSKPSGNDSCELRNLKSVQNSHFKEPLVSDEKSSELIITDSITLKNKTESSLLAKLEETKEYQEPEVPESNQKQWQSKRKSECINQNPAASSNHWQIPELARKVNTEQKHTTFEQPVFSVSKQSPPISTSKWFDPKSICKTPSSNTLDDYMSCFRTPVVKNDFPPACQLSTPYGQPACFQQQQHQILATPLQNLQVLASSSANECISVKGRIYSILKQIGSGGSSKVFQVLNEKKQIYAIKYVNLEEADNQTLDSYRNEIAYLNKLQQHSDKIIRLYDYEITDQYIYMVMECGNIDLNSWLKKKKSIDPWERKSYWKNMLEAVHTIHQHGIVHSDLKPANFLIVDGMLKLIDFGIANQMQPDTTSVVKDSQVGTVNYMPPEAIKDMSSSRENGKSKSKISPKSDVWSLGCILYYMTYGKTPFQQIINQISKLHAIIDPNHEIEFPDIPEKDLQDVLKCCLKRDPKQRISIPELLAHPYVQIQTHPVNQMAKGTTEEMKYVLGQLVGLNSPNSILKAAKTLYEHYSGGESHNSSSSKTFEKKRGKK
T5 sequence (P29320 21-983): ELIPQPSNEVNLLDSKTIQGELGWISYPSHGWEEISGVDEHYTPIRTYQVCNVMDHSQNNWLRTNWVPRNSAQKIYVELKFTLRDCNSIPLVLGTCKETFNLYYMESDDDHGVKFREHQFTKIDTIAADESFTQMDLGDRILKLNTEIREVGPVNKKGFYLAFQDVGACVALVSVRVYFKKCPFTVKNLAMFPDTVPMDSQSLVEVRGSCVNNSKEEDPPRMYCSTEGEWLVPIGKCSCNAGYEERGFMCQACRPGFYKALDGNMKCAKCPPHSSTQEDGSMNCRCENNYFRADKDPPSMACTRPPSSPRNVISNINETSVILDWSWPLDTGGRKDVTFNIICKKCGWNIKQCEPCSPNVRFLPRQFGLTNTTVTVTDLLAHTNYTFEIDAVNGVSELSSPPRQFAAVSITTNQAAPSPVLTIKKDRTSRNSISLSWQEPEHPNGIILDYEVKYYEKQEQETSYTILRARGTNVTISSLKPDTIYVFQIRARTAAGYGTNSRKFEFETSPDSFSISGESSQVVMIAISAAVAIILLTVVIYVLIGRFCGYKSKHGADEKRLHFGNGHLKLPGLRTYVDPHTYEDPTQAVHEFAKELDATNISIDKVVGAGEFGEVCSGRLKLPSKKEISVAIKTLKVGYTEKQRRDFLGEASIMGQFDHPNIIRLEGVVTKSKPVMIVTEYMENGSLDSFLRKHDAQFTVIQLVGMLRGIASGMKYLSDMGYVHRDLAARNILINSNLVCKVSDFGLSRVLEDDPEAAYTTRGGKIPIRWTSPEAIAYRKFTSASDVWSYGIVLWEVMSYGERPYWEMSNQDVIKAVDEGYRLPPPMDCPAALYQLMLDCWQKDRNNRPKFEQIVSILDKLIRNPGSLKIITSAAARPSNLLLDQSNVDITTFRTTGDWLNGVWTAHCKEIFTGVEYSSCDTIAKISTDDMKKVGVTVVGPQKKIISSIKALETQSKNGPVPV

Q: What does the source list for `CC(C)Oc1ccc(F)c(-c2cnc(N)c(C(=O)Nc3cnccc3N3CCC[C@@H](C(=O)O)C3)n2)c1` [GNF4877]?
A: EC50 [1]: 0.66 µM; DNA and ATP content and islet equivalent units (IEQ) compared with vehicle (human islets): increases in DNA and ATP content and an increase in islet equivalent units; insulin secretory capacity (GSIS) (human islets): maintained insulin secretory capacity; induction of Wnt-driven luciferase reporter gene [2]: induce a Wnt-driven luciferase reporter gene; NFATc1-GFP nuclear localization [3]: caused marked nuclear localization of NFATc1-GFP; inhibition at 1 µM (AURORA-B): 49%; inhibition at 1 µM (CHEK1): 43%; inhibition at 1 µM (CK1a): 89%; inhibition at 1 µM (CSK): 54%; inhibition at 1 µM (EphA3): 63%; inhibition at 1 µM (EphB3): 28%; inhibition at 1 µM (IRAK4): 52%; inhibition at 0.2 µM (JAK2; Conc 200 nM): 2%; inhibition at 1 µM (JAK2): 95%; inhibition at 1 µM (LynA): 54%; inhibition at 1 µM (MAPK1 (ERK2)): 7%; inhibition at 1 µM (NEK2): 0%; inhibition at 0.2 µM (PDGFRa; Conc 200 nM): 0%; inhibition at 1 µM (PDGFRa): 88%; inhibition at 0.2 µM (RET; Conc 200 nM): 26%; inhibition at 1 µM (RET): 96%; inhibition at 1 µM (SRC): 64%; inhibition at 1 µM (TTK): 51%; inhibition at 1 µM (bRAF): 20%; inhibition at 1 µM (p38delta (MAPK13)): 13%; Percent inhibition, FAK2 (PTK2) (FAK2 (PTK2); Conc 200 nM): 9%; Percent inhibition, FAK2 (PTK2) (FAK2 (PTK2); Conc 1000 nM): 70%

Q: What does the source list for `Nc1ncc(-c2ccccc2)nc1C(=O)Nc1cnccc1N1CCC(C(=O)O)CC1` [GNF7156]?
A: EC50 [1]: 2.2 µM; insulin content of treated human islets (human islets; 6.7 μM GNF7156): slightly reduced insulin content; DNA and ATP content and islet equivalent units (IEQ) compared with vehicle (human islets): increases in DNA and ATP content and an increase in islet equivalent units; insulin secretory capacity (GSIS) (human islets): maintained insulin secretory capacity; induction of Wnt-driven luciferase reporter gene [2]: induce a Wnt-driven luciferase reporter gene; NFATc1-GFP nuclear localization [3]: caused marked nuclear localization of NFATc1-GFP; inhibition at 1 µM (AURORA-B): 52%; inhibition at 1 µM (CHEK1): 12%; inhibition at 1 µM (CK1a): 42%; inhibition at 1 µM (CSK): 29%; inhibition at 1 µM (EphA3): 82%; inhibition at 1 µM (EphB3): 12%; inhibition at 1 µM (IRAK4): 25%; inhibition at 1 µM (JAK2): 92%; inhibition at 1 µM (LynA): 56%; inhibition at 1 µM (MAPK1 (ERK2)): 6%; inhibition at 1 µM (NEK2): 3%; inhibition at 1 µM (PDGFRa): 78%; inhibition at 1 µM (RET): 98%; inhibition at 1 µM (SRC): 61%; inhibition at 1 µM (TTK): 29%; inhibition at 1 µM (bRAF): 46%; inhibition at 1 µM (p38delta (MAPK13)): 10%; Percent inhibition, FAK2 (PTK2) (FAK2 (PTK2); Conc 1000 nM): 92%
